Relative binding affinity (RBA) data for 3 compounds are collected here from ChEMBL document CHEMBL1122289.

Assay [1] addresses Estrogen receptor (Mus musculus) (UniProt O08537+P19785). The assay is described as follows: Relative binding affinity for estrogen receptor. The class given is protein assay.
Assay [2] deals with T1, Progesterone receptor (Oryctolagus cuniculus) (UniProt P06186).
T1 sequence (whole entry): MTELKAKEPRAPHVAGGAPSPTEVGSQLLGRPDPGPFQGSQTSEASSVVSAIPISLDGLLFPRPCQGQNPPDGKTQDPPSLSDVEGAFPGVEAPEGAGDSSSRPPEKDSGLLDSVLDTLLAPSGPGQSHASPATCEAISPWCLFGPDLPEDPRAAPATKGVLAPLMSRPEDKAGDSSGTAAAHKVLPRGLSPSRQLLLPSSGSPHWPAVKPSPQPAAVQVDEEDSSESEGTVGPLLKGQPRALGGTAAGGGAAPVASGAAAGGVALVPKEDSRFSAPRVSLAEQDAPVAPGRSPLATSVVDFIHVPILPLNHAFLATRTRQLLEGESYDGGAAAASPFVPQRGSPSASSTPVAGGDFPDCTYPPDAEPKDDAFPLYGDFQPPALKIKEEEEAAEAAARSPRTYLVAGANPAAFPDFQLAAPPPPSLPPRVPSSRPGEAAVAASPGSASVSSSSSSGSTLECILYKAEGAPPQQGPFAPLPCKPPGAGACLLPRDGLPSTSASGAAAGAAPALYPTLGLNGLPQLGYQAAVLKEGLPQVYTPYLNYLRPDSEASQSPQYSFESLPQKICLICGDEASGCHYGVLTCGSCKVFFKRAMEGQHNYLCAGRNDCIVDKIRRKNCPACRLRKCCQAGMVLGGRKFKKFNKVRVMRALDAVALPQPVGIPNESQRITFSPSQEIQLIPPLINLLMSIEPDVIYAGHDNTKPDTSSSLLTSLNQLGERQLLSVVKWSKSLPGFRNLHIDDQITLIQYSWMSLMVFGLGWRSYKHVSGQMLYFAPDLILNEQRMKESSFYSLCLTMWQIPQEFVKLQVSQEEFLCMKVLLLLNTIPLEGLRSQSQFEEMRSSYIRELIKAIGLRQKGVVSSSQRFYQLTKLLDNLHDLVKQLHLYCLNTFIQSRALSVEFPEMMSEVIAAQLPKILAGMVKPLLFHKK
The assay is described as follows: Relative binding affinity for progesterone receptor.

SMILES strings stand for the structures.

Sequence of Estrogen receptor (Mus musculus) (O08537 whole entry, looked up): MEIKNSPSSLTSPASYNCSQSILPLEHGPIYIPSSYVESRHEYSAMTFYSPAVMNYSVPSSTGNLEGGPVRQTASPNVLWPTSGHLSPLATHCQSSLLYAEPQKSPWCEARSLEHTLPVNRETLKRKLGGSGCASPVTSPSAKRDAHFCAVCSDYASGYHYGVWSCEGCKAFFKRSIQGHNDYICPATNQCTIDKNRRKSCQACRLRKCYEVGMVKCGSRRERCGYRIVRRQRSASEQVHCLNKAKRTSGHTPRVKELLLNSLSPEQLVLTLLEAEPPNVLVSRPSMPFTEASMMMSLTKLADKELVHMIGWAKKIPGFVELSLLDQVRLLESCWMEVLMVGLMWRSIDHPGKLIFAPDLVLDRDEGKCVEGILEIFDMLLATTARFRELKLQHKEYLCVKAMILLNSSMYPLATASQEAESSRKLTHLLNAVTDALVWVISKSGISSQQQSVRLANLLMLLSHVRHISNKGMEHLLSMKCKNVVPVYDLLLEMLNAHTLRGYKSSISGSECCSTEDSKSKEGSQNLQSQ
Sequence of Estrogen receptor (Mus musculus) (P19785 whole entry, looked up): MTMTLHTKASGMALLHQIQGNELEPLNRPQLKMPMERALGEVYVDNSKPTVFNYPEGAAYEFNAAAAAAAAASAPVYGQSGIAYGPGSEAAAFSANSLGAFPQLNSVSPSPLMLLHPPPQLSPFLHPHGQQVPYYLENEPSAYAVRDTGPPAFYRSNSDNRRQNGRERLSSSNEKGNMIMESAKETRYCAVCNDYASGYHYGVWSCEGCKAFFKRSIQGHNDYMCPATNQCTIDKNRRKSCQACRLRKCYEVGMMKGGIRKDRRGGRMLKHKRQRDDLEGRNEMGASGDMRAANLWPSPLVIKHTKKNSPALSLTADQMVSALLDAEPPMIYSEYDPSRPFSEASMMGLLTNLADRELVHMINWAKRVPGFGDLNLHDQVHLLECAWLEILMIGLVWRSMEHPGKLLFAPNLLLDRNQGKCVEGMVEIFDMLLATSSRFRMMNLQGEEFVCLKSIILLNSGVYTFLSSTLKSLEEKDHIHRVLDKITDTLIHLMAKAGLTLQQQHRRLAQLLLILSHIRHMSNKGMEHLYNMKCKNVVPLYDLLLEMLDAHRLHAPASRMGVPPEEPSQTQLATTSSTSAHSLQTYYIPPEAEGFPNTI

Regarding `CC(=O)[C@H]1CC[C@H]2[C@@H]3CCC4=CC(=O)CC[C@]4(C)[C@H]3CC[C@]12C`, the relative binding affinity (RBA) is < 0.1 in assay [1] and 100 in assay [2].

As for `CC(=O)[C@@]1([Se]c2ccccc2)CC[C@H]2[C@@H]3CCC4=CC(=O)CC[C@]4(C)[C@H]3CC[C@@]21C`, the relative binding affinity (RBA) in assay [1] was < 0.1; in assay [2], 2.1.

For `C[C@]12CC[C@H]3[C@@H](CCC4=CC(=O)CC[C@@]43C)[C@@H]1CC[C@@H]2C(=O)C[Se]c1ccccc1`, the results for the relative binding affinity (RBA) in assay [1] and in assay [2] were < 0.1 and 59, respectively.
